Series [1] has as its system Hedgehog signaling (TM3-Gli-Luc). Briefly: TM3-Gli-Luc luciferase reporter assay stimulated with 20 nM SAG. The class given is cell-based. The gist of the method: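 Luciferase read-out divided by CellTiter-Glo viability, minus DMSO/no-SAG baseline, expressed relative to 20 nM SAG alone. Cells exposed to compound with SAG for 48 h at 37 °C in 2.5% FBS DMEM/F12 on gelatin. EC50 ±SEM from at least two separate-day runs.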

Series [2] concerns Gli1 transcription. The series is described as follows: Sufu−/− mouse embryonic fibroblasts qRT-PCR. The class given is cell-based. The source says: (§1) In light of EGM1's ability to halt Hh transcriptional activity at a node downstream of the negative regulator Sufu, and thus also downstream of Smo, we sought to confirm mode of action retention with our most promising analogs. Therefore, we employed Sufu−/− mouse embryonic fibroblasts (MEF) that display constitutively active transcription of Hh target genes Gli1 and Ptch1 and monitored the ability of our optimized analogs to repress signaling via quantitative reverse transcription-PCR (qRT-PCR). […] We then evaluated improved analogs from multiple structural classes including those from Table 1 with cyclohexylthiophene cores as well as from Table 13 with structurally distinct core modifications.
(§2) Sufu^−/− cells were seeded into 12-well plates at a density of 100,000 cells/well in D10 FBS and incubated for 24 hours. Small molecule solutions were prepared by adding the desired amount of compound from 10 mM DMSO stock to D0.5 FBS. Negative control was prepared by adding an equi-volume amount of DMSO to D0.5 FBS as compared to small molecule treated conditions. Cell plating medium was aspirated and replaced with 1 mL of prepared small molecule-containing media, and plates were incubated for 24 hours before proceeding to RNA isolation.
(§3) Cells were washed 1× with 1× phosphate-buffered saline (PBS) then RNA was isolated using the Qiagen RNeasy Mini Kit (Qiagen, Germantown, Md., USA) according to the manufacturer's protocol, eluting RNA from the spin column with 30 μL of RNase-free water. RNA was placed on ice and immediately subjected to reverse transcription. Remaining RNA was stored at −80° C.
(§4) Reverse transcription polymerase chain reaction (RT-PCR) was performed with the Applied Biosystems High Capacity cDNA Reverse Transcription Kit (ThermoFisher Scientific, Waltham, Mass., USA) using an Eppendorf MasterCycler. Each 20 μL reaction contained 0.5 μg of total RNA, 2 μL of 10×RT Buffer, 0.8 μL of 25×dNTP Mix (100 mM), 2 μL of 10×RT Random Primers, 1 μL of MultiScribe® Reverse Transcriptase (50 U/μL), 1 μL of Recombinant RNasin® Ribonuclease Inhibitor (40 U/μL) (Promega, Madison, Wis., USA), and nuclease-free water. Reverse transcription was performed with the following program: 25° C. for 10 minutes, 37° C. for 120 minutes, and 85° C. for 5 minutes. The cDNA was subjected to quantitative real-time PCR (Q-PCR) or stored at −20° C.
(§5) Quantitative real-time PCR was performed on an Applied Biosystems 7900 HT Fast Real Time PCR System in 384-well format. Each cDNA sample was assayed in triplicate with both probe of interest and control probe. Master mixes for each probe were prepared corresponding to 10 μL of Applied Biosystems TaqMan Universal PCR Master Mix (ThermoFisher Scientific, Waltham, Mass., USA), 1 μL of primer, and nuclease-free water corresponding to a volume providing 20 μL reactions when loading an average of 50 ng of cDNA. Quantitative real-time PCR was run with the following thermal cycling protocol: 50° C. for 2 min., 95° C. for 10 min., and 40 cycles of 95° C. for 15 seconds, 60° C. for 1 min., then fluorescence reading. The following FAM probes were purchased from Life Technologies (Carlsbad, Calif., USA): mouse GAPDH, Mm99999915_g1; mouse Gli1, Mm00494646_g1; mouse Ptch1, Mm01306905_m1.
(§6) Quantitative real-time PCR data for Hh signaling inhibition was quantitated using the ΔΔCt method. Control probe values were subtracted from probe of interest values to arrive at the ΔCt value. The ΔCt value was transformed by 2-^ΔCt to arrive at the ΔΔCt value. All ΔΔCt values were divided by the average negative control ΔΔCt value to provide percent Hh signaling activity. Percent inhibition values were derived by calculating the inverse of percent activity. Data is reported as mean±standard error of the mean (SEM), representing at least two biological replicates, each quantitated in triplicate.
On the technique in general: In qPCR the cycle at which signal appears reflects the starting amount.

A short description of series [3]: Lipophilic efficiency (LipE = pEC50 − cLogP) and cLogP. How it is done: Therefore, we prioritized phenotypic analog evaluation in the Gli-responsive luciferase reporter line TM3-Gli-Luc stimulated with 20 nM Smo agonist (SAG) while concurrently monitoring non-specific cellular toxicity. Additionally, lipophilic efficiency (LipE), a concurrent readout of a compound's potency (pEC50) and lipophilicity (cLogP) derived by subtracting the latter from the former, was utilized to optimize solubility properties (Table 12B), allowing for straightforward tracking of compounds with improvements in both parameters.

Series [4] has as its system zebrafish embryos. Briefly: Zebrafish embryo phenotypic assay (ZF). The format is in vivo. The conditions noted are these: wild-type embryonic zebrafish, dosed 5 hpf. The essentials:
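Phenotype scored by gross morphology at 24, 48 and 72 hours post-fertilization. Compound added at 5 hpf, from 1 mM or 10 mM stocks in DMSO, to about 10 wild-type AB embryos in E3 water. In the original screen, 5 μM final was applied near 4 hpf at 28.5 °C.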

Series [5] has as its system Ptch1 transcription. The series is described as follows: Sufu−/− mouse embryonic fibroblasts qRT-PCR. The conditions noted are these: for inhibition at 10 µM: Mus musculus, Fibroblast, read-out: Sufu Null (Ptc) % Inh., 10 μM. The class given is cell-based.
Excerpt: as §1, §2, §3, §4, §5, §6

In series [6] the test system is Gli1 mRNA. Briefly: Hh % Inh.: SAG-induced Gli1 expression in C3H10T½ cells (qPCR). The conditions noted are these: Mus musculus, C3H 10T1/2, SAG-induced (100 nM), 24 hours; for inhibition at 1 µM: 1 pM [sic], read-out: C3H10T1/2 qPCR, Gh1 mRNA % Inh., 1 pM; for inhibition at 10 µM: 10 pM [sic], read-out: C3H10T1/2 qPCR, Gh1 mRNA % Inh., 10 pM; for EC50: read-out: C3H10T1/2 qPCR, Gh1 mRNA EC50. The class given is cell-based. How it is done:
Compounds are dosed from 10 mM DMSO stock solutions, and mRNA is isolated after 24 hours of compound treatment. mRNA is reverse transcribed to produce cDNA which is quantified by quantitative polymerase chain reaction (qPCR) in triplicate and levels are normalized to GAPDH levels. Data is presented as percent inhibition compared to positive control (SAG).

Series [7] concerns the target T1, Smo cyclopamine (Cyc) binding site (Homo sapiens, UniProt Q99835).
T1 construct: expressed in transfected cells; host or cells: HEK-293T
The series is described as follows: BODIPY-cyclopamine competition in HEK-293T cells overexpressing Smo. How it is done:
Thus, HEK-293T cells overexpressing Smo were concurrently treated with 5 nM BODIPY-Cyc and molecules of interest.

For series [8], the system named is PKA activation. Briefly: Immunostaining of autophosphorylated PKA catalytic subunit in NIH3T3 cells. The class given is cell-based. The conditions noted are these: SAG-stimulated NIH3T3 cells, Egm 5 μM, Rolipram 10 μM. The protocol:
NIH3T3 cells were plated on Poly-D-Lysine-coated glass coverslips and were cultured at 37° C., 5% CO2 in DMEM medium containing 10% fetal bovine serum until reaching 75% confluency. For one set of experiments, cells were then transfected with VSV-tagged PDE4D3 plasmid (gift from Miles Houslay, University of Glasgow, Scotland, UK) using Fugene6 transfection reagent (Roche, Indianapolis, Ind.) per manufacturer's protocol. Afterward, cell medium was replaced with DMEM/0.5% FBS containing either 5 μM eggmanone or DMSO and incubated overnight at 37° C., 5% CO2. Cells were fixed in 4% PFA at room temperature for 10 minutes prior to permeabilization, blocking, and staining with primary antibodies against Arl13b (gift of Tamary Caspary, Emory University, Atlanta, Ga.) and VSV (AbCam, Cambridge, Mass.). Fluorescent immunocytochemistry was performed using species-specific, secondary antibodies (Jackson Immunoresearch, West Grove, Pa.). For additional immunocytochemistry experiment, cells were treated with 20 nM SAG in the presence or absence of 5 uM Eggmanone. After overnight incubation, cells were washed with PBS, fixed for 10 minutes in 4% PFA, permeabilized 20 minutes at −20C with cold methanol, blocked with PBS/1% BSA, and incubated with primary antibodies to phospho-PKA catalytic domain Thr197 (Cell Signaling, Danvers, Mass.) and then to Arl13b. An additional overnight blocking step using unconjugated rabbit IgG was required between primary antibody incubations since both antibodies were produced in rabbit. Fluorescent conjugated secondary antibodies were used for visualization. Data analysis was performed in part through the use of the VUMC Cell Imaging Shared Resource.
Using ImageJ software (National Institutes of Health, developed by W. Rasband), a region of interest was created using the magic wand tool on Arl13b channel and transposed to the Gli2 channel, and integrated density was measured and reported as arbitrary units (a.u.). For phospho-PKA, using ImageJ, a line selection tool was used to select a line projected through the length of the primary cilia and an equal length beyond. The intensity values were potted and the cumulative florescence (area under the curve) was calculated for three cilia, blindly, for each treatment. These values for cilia and pericilia domain were analyzed by a two tailed students t-test. For correlation analysis, correlation coefficient for intensity of gamma-tubulin and phosphor-PKA were calculated and compared among treatments with students t-test.

Setting [9] is: 20 nM SAG, mean ± standard error of the mean, read-out: TM3-Gli-Luc EC50.
Where [10] appears, read: TM3-Gli-Luc reporter line stimulated with 20 nM SAG, mean ± SEM, Table 14, read-out: TM3-Gli-Luc EC50.
[11] abbreviates: Calculated as pEC50 - cLogP, Molinspiration Cheminformatics.
The mark [12] stands for this setting: Table 9A, read-out: TM3 G8 Luciferase EC 50.

Like-named read-outs stand apart in the source and are kept apart here.

T1 sequence (Q99835 28-787): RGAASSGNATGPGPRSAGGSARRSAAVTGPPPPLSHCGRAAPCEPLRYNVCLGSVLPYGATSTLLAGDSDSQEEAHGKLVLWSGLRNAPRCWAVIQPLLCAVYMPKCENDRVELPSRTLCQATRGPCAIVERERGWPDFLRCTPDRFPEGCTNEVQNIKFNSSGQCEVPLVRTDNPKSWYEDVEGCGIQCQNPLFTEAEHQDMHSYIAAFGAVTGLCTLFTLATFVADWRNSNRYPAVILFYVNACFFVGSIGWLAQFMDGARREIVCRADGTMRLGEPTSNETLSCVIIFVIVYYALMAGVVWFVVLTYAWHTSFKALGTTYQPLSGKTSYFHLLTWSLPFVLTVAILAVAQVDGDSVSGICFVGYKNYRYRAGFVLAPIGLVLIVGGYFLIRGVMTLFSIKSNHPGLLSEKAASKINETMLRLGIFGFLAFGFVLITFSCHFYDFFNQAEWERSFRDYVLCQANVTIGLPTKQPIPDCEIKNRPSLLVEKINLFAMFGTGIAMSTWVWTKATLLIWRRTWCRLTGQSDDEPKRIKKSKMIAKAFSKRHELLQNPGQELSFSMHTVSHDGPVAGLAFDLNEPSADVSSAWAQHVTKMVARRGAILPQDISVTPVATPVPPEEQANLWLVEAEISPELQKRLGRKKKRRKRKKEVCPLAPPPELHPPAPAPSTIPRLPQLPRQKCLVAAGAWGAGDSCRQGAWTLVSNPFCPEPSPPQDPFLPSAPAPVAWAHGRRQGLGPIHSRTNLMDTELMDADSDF

With `O=C(CSc1nc2sc3c(c2c(=O)n1C1CC1)CCCC3)c1cccs1` [Formula 9b], the EC50 in series [1] (setting [9]) and in series [1] (setting [10]) was 1890 ± 750 nM throughout. In addition, the “Transcriptional inhibition in the Sufu−/− cell line, in words” value in series [2] (Gli1 and Ptch1) is listed as “general ability to inhibit transcriptional activity”. Moreover, the LipE in series [3] (setting [11]) is 1.40; in series [3] (pEC50 - cLogP, Table 14), 1.40.

In the case of `O=C(CSc1nc2sc3c(c2c(=O)n1C1CC1)CCCC3)c1ccccc1` [JEH-1-163-1], the “ZF Phenotype EC100” value in series [4] was 0.81 µM. Besides, in series [1] (setting [12]), the EC50 was found to be 1960 nM. In addition, in series [5], the inhibition at 10 µM turned out to be 41.9%.

Consider `C=C(C)Cn1c(SCC(=O)N2CCCCC2)nc2sc3c(c2c1=O)CCCC3` [JEH-3-048-3], for which, in series [6], the inhibition at 1 µM was 33.8% and the inhibition at 10 µM stood at 98.6%. Also, in series [1] (setting [12]), the EC50 was 6310 nM. Moreover, the inhibition at 10 µM in series [5] was -13.7%.

On to `C=C(C)Cn1c(SCC(=O)N2CCCCC2C)nc2sc3c(c2c1=O)CCCC3` (stereo not drawn) [JEH-3-069-2], for which, in series [6], the inhibition at 1 µM came out at 38.6%, the inhibition at 10 µM was determined as 97.6% and the EC50 amounted to 2740 nM. In series [1] (setting [12]), the EC50 worked out at 2500 nM. In addition, the inhibition at 10 µM in series [5] came out at 77.6%.

For the molecule `C=C(C)Cn1c(SCC(=O)c2cccn2C)nc2sc3c(c2c1=O)CCCC3` [JEH-3-077], in series [6], the inhibition at 1 µM came out at 47.1%, the inhibition at 10 µM worked out at 89.1% and the EC50 worked out at 1130 nM. Further, the inhibition at 10 µM in series [5] amounted to 52.1%.

As to `CCn1c(SCC(=O)c2cccs2)nc2sc3c(c2c1=O)CCCC3` [JEH-3-087-1], in series [6], the inhibition at 1 µM turned out to be 39.5%, the inhibition at 10 µM came out at 96.1% and the EC50 stood at 1370 nM. Moreover, the EC50 in series [1] (setting [12]) was found to be 12000 nM. Also, in series [5], the inhibition at 10 µM worked out at 21.6%.

As for `CCCn1c(SCC(=O)c2cccs2)nc2sc3c(c2c1=O)CCCC3` [JEH-3-087-2], in series [6], the inhibition at 1 µM was found to be 64.2%, the inhibition at 10 µM turned out to be 101% and the EC50 was 789 nM. The EC50 in series [1] (setting [12]) stood at 1580 nM. Further, the inhibition at 10 µM in series [5] came out at 12.1%.

Regarding `CC1=C2C[C@H]3[C@@H](CC=C4CC(=O)CC[C@@]43C)[C@@H]2CC[C@]12O[C@@H]1C[C@H](C)CN(CCNC(=O)CCCCCNC(=O)CCc3ccccc3)[C@H]1[C@H]2C` [KAAD-Cyc, KAAD-cyclopamine, reference compound], the “Displacement of BODIPY-cyclopamine (5 nM) from Smo” value in series [7] is on record as “completely displaced BODIPY-Cyc”.

For `Cc1c(C(=O)Nc2ccc(N3C[C@@H](C)O[C@@H](C)C3)nc2)cccc1-c1ccc(OC(F)(F)F)cc1` [Sonidegib, reference compound], the “Hh inhibitory activity / potency in words” value in series [1] (20 nM SAG) is on record as “displayed expected potency”; in series [1] (20 nM SAG, listed as 2), “low-nanomolar”. Moreover, the EC50 in series [1] (setting [9]) and in series [1] (setting [10]) was 1.2 ± 0.2 nM throughout. In addition, the “inhibition of Gli1 transcription” value in series [2] (0.1 μM) is given as “failed to inhibit transcription”. Moreover, the “inhibition of Ptch1 transcription” value in series [5] (0.1 μM) is reported as “failed to inhibit transcription”. For the same molecule, the LipE in series [3] (setting [11]) was 3.02; in series [3] (pEC50 - cLogP, Table 14), 3.02.

For `CCCC(=O)Nc1ncnc2c1ncn2[C@@H]1O[C@@H]2COP(=O)(O)O[C@H]2[C@H]1OC(=O)CCC` [dibutyril cAMP (DBA), dibutyril cAMP, reference compound], the results for the “PKA activation (phospho-PKA-C staining), spatial distribution” value in series [8] and in series [8] (listed as dibutyril cAMP) were “induce spatially localized PKA activation in the basal body” and “more diffuse increase in phospho-PKA staining”, respectively.

These data come from patent publication US10329304B2, “Compounds and methods for inhibition of hedgehog signaling and phosphodiesterase” (Vanderbilt University, priority 2014, dated 2019).
